Data taken from the supplement of paper PMC10290057.

Columns and labels:
HCT116 [1] = assay: AC50 cell viability (CellTiter-Glo); higher = less potent; settings: 48 h
HCT116 [2] = assay: efficacy (fitted maximal change in viability relative to DMSO control); higher = less cytotoxic (negative = loss of viability); settings: 48 h
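Wherever AC50 cell viability (CellTiter-Glo) is given: HCT116 colorectal carcinoma cells screened at five concentrations per compound, luminescent viability scaled between DMSO wells and empty wells on each plate, curves fitted per compound.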
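Wherever efficacy (fitted maximal change in viability relative to DMSO control) is given: Luminescence-based viability readout, five doses per compound, normalized against on-plate DMSO and empty-well controls, followed by dose-response curve fitting for every drug.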

Row | SMILES | AC50 cell viability (HCT116 [1]) | efficacy (HCT116 [2])
1 | CCc1cncnc1N1CCN(Cc2nc3cc(C(F)(F)F)ccc3[nH]2)CC1 | 14.8 µM | -42.6%
2 | CN(C)Cc1c(C(=O)NCCOc2ccc(C(=O)NO)cc2)oc2ccccc12 [Abexinostat] | 0.263 µM | -91.9%
3 | COc1cc(O)c2c(c1)C1OC1C[C@H](O)[C@H](O)C(=O)/C=C\C[C@H](C)OC2=O (stereo not given in full) [Hypothemycin] | 3.72 µM | -72%
4 | COc1cccc2c1CCCC2CCCN1CCN(C2CCCCC2)CC1 (stereo not given) [PB-28] | 16.6 µM | -91.3%
5 | COC(=O)Nc1nc2cc(C(=O)c3cccs3)ccc2[nH]1 [Nocodazole] | 0.166 µM | -65.7%
6 | CCc1nc(C(N)=O)c(Nc2ccc(N3CCC(N4CCN(C)CC4)CC3)c(OC)c2)nc1NC1CCOCC1 [Gilteritinib] | 1.66 µM | -65.1%
7 | COC/1=C/C=C2\C(=C/C1=O)[C@H](CCC3=CC(=C(OC)C(=C23)OC)OC)NC(C)=O [Colchicine] | 0.0661 µM | -59.9%
8 | COc1ccc2cc3[n+](cc2c1OC)CCc1cc2c(cc1-3)OCO2 [Berberine] | 14.8 µM | -96.9%
9 | O=C(/C=C/c1ccc2ccc(C(F)(F)F)cc2n1)c1ccncc1 [PFK-158] | 3.72 µM | -89%
10 | CCCCc1nc2cc(/C=C/C(=O)NO)ccc2n1CCN(CC)CC [Pracinostat] | 0.372 µM | -86.8%
11 | O=C(O)c1ccc2c(c1)nc(Nc1cccc(Cl)c1)c1ccncc12 [Silmitasertib] | 5.9 µM | -87.1%
12 | [O-][n+]1cccc(-c2nc3c(Cl)cccc3cc2[C@@H](Nc2ncnc3cccnc23)C(F)(F)F)c1 [Seletalisib] | 18.6 µM | -49.3%
13 | CC(C)Oc1cc(Nc2nc(N[C@@H](C)c3ccc(F)cn3)ncc2Cl)n[nH]1 [AZ-23] | 5.25 µM | -67.9%
14 | NC(=O)c1cccc(-c2cc(Nc3ccc(OC(F)(F)F)cc3)ncn2)c1 [GNF-2] | 18.6 µM | -97.5%
15 | Cc1cccc(/C=N/Nc2cc(N3CCOCC3)nc(OCCc3ccccn3)n2)c1 [Apilimod] | 1.18 µM | -99.4%
16 | COc1cc([C@@H]2c3cc4c(cc3[C@H](O)[C@H]3COC(=O)[C@@H]23)OCO4)cc(OC)c1OC [Picropodophyllin] | 0.417 µM | -56.6%
17 | CC(C)COCC(CN(Cc1ccccc1)c1ccccc1)N1CCCC1 (stereo not given) [Bepridil] | 16.6 µM | -104%
18 | O=C1c2ccccc2-[n+]2ccc3c([nH]c4ccccc43)c21 [Fascaplysin] | 0.742 µM | -88.3%
19 | N[S+](=O)([O-])OC[C@@H]1C[C@@H](n2ccc3c(N[C@H]4CCc5ccccc54)ncnc32)C[C@@H]1O [MLN-4924] | 0.235 µM | -65.7%
20 | S=C(NCc1ccc2c(c1)OCO2)N1CCN(c2ncnc3c2oc2ccccc23)CC1 [Amuvatinib] | 1.86 µM | -38.8%
21 | Cc1cc(F)c(C(=O)Nc2cccc(-c3nncn3C(C)C)n2)cc1-n1cnc(C2CC2)c1 [Selonsertib] | 16.6 µM | -73.8%
22 | CN\1C(=O)/C(=C(\N=C1NC[C@@H](N)CC2=CC=CC=C2)C3=CC=NC=C3)C4=CC5=C(C=CC=C5)C=C4 [AMG-548] | 20.9 µM | -101%
23 | CCN1CCC(n2cc(CNc3cc(Cl)c4ncc(C#N)c(Nc5ccc(F)c(Cl)c5)c4c3)nn2)CC1 [Wyeth Cot Inhibitor 2] | 20.9 µM | -98.5%

Row | SMILES | AC50 cell viability (HCT116 [1]) | efficacy (HCT116 [2])
24 | Cc1oncc1C(=O)Nc1ccc(C(F)(F)F)cc1 [Leflunomide] | 3.32 µM | -31.2%
25 | CC1(C)CC\C2=C(/O1)C3=C(C=CC=C3)C(=O)C2=O [beta-Lapachone] | 14.8 µM | -103%
26 | CCN(CC)CCCCNc1ncc2c(n1)N(C)C(=O)N(c1c(Cl)c(OC)cc(OC)c1Cl)C2 | 11.8 µM | -80.5%
27 | CN1CCN(c2ccc(OC(F)(F)F)c(Nc3ncc4c(n3)-c3c(c(C(N)=O)nn3CCO)CC4)c2)CC1 [NMS-P937] | 0.0661 µM | -63.9%
28 | O=C(Nc1ccncc1)C(=O)c1cn(Cc2ccc(Cl)cc2)c2ccccc12 [Indibulin] | 0.295 µM | -70.9%
29 | C[N]1C=C(C=N1)C2=CC=C3N=CC\4=C(N(C(=O)\C=C4)C5=CC6=C(CCN6C(=O)C=C)C=C5)C3=C2 | 0.512 µM | -78.5%
30 | COc1cc2nccc(Oc3ccc(NC(=O)Nc4ccc(F)cc4F)c(F)c3)c2cc1OC [KI-8751] | 2.09 µM | -47.4%
31 | CC1CCN(c2cc(N3CCN(C)CC3)ccc2NC(=O)c2cc(C#N)c[nH]2)CC1 [c-FMS Inhibitor] | 7.42 µM | -34%
32 | CNCc1ccc(-c2[nH]c3cc(F)cc4c3c2CCNC4=O)cc1 [Rucaparib] | 18.6 µM | -101%
33 | CCCNC(=O)[C@H]1O[C@@H]1C(=O)N[C@H](C(=O)N1CCC[C@H]1C(=O)OC)C(C)CC (stereo not given in full) [CA-074 Me] | 18.6 µM | -88.8%
34 | CC1=C(/C=C/C(C)=C/C=C/C(C)=C/C(=O)Nc2ccc(O)cc2)C(C)(C)CCC1 [Fenretinide] | 23.5 µM | -84.3%
35 | C=CC(=O)Nc1cccc(Oc2nc(Nc3ccc(N4CCN(C)CC4)c(F)c3)nc3[nH]ccc23)c1 [Avitinib] | 13.2 µM | -123%
36 | NC1=NC=CC2=C1N=C[N]2[C@@H]3\C=C(CO)/[C@@H](O)[C@H]3O [3-Deazaneplanocin A] | 0.59 µM | -55.4%
37 | CC1(COc2ccc3c(c2)ncn3-c2ccc3cccc(N4CCC(N)CC4)c3n2)COC1 [Crenolanib] | 2.95 µM | -104%
38 | O=[S+]([O-])(NCCNC/C=C/c1ccc(Br)cc1)c1cccc2cnccc12 [H-89] | 18.6 µM | -88.2%
39 | Cc1ccc(-c2ncn(-c3ccc(Nc4nccc(-c5cccc(N6CCOCC6)c5)n4)cc3)n2)cn1 [SR-3306] | 1.48 µM | -85.8%
40 | NCC1CCN(c2nccc(-c3ccc4ccccc4c3)n2)CC1 | 14.8 µM | -126%
41 | Cc1[nH]c(/C=C2\C(=O)Nc3ccc(F)cc32)c(C)c1C(=O)NC[C@H](O)CN1CCOCC1 | 2.63 µM | -73%
42 | O=C(NO)c1cnc(N2C[C@H]3C[C@@H]2CN3c2cc(C(F)(F)F)ccn2)nc1 [HDACi-02] | 1.48 µM | -86.6%
43 | CCCOc1ccc(CCc2nc3cc(-c4c(C)noc4C)ccc3n2CCN2CCOCC2)cc1 [PF-CBP1] | 14.8 µM | -94.5%
44 | CC1CC2=CC=CC=C2N1C(=O)C\C3=N\C(=O)\C=C(/N3)N4CCOCC4 (stereo not given) | 18.6 µM | -57.5%
45 | COc1cc(Oc2ccnc3cc(OC)c(OC)cc23)ccc1NC(=O)NC(C)c1nccs1 (stereo not given) | 20.9 µM | -63.5%
